Here are results for 3 molecules from patent US20260008752A1, “POLYMORPHIC FORMS OF FLORBETAPIR PRECURSOR AV-105” (ELI LILLY AND COMPANY, priority 2022, published 2026).

The structures appear in SMILES notation. ≈ marks a conversion by molar mass, not a printed value.

Common to all, as to format: physicochemical
The nature of data set [1]: Long term slurry experiments (solid form by XRPD after ~2 weeks). The protocol:
Samples of starting material were suspended in specified solvents and triturated at specified temperatures. After approximately 24 hours, suspensions were transferred into Spin-X centrifuge tubes equipped with solids 0.45-μm nylon filters and centrifuged. Solids separated were resuspended in fresh solvents and the agitation was continued for a total of 2 weeks. Solids were isolated as described above and analyzed by XRPD.
(§1) Unless otherwise specified, solids of AV-105 were composed of Form A and were agitated in specified solvents at specified temperatures. Solvents were replaced after approximately 24 hours, where possible. After ˜2 weeks, solids were separated from supernatants via centrifugation with filtration and analyzed by XRPD. Solubilities were evaluated as a single, small scale measurement via gravimetric method using supernatants separated from the solids. Organic solvents used are anhydrous. […] Approximate solvent ratios are expressed in % by volume. Temperatures and duration of experiments are approximate.

Data set [2] is described as follows: Differential scanning calorimetry (heat-of-fusion rule). As to conditions: at all temperatures; forms monotropically related. Here is the method: (onset) with a heat of fusion of 78.9 J/g (FIG. 4). […] This is consistent with the screen findings, where conversion of Form A into Form B has been observed in a wide temperature range, between 2-8° C. and 45° C.

Data set [3] is described as follows: Equilibrium solubility, gravimetric, from slurry supernatants. As to conditions: thermodynamic from solid. The protocol: Measured aliquots of supernatants isolated from the solids were placed in pre-weighed TGA pans for evaporation.
as §1

Turning to `Cc1ccc(S(=O)(=O)OCCOCCOCCOc2ccc(/C=C/c3ccc(N(C)C(=O)OC(C)(C)C)cc3)cn2)cc1` [Form A], the “Form change on slurrying in a variety of solvent systems” value in data set [1] (all solvent systems tested between 2-8° C. and 45° C.) was “conversion to Form B”.

With `Cc1ccc(S(=O)(=O)OCCOCCOCCOc2ccc(/C=C/c3ccc(N(C)C(=O)OC(C)(C)C)cc3)cn2)cc1` [Form B], in data set [1] (between 2-8° C. and 45° C.), the “Thermodynamic stability from slurry experiments” value is recorded as “thermodynamically the more stable form”. For the same molecule, in data set [2], the “Relative thermodynamic stability from DSC (heat-of-fusion rule)” value was “more stable than Form A”.

Turning to `Cc1ccc(S(=O)(=O)OCCOCCOCCOc2ccc(/C=C/c3ccc(N(C)C(=O)OC(C)(C)C)cc3)cn2)cc1` [AV-105], the “XRPD Results/observations” value in data set [1] (ACN/water 50/50, Aw 0.90, RT, start Form A, ~2 weeks slurry) is on record as “Form B”; in data set [1] (CPME, 2-8° C., start Form A, ~2 weeks slurry), “Form B”; in data set [1] (CPME, RT, start Form A, ~2 weeks slurry), “Form B”; in data set [1] (EtOAc/heptane 40/60, 2-8° C., start Form A, ~2 weeks slurry), “Form B”; in data set [1] (EtOAc/heptane 40/60, 35° C., start Form A, ~2 weeks slurry), “Form B”; in data set [1] (EtOAc/heptane 40/60, RT, start Form A, ~2 weeks slurry), “Form B”. The “XRPD Results/observations” value in data set [1] (EtOH, 2-8° C., with solvent replacement, start Form A) is “Form B”; in data set [1] (EtOH, 45° C. (a), starting material mixture of Form A/Form B), “Yellow gel”; in data set [1] (EtOH, 45° C., start Form A) it was “Yellow solution,”; in data set [1] (EtOH, RT, with solvent replacement (a), starting material mixture of Form A/Form B) it was “Form B”; in data set [1] (EtOH, RT, with solvent replacement, start Form A), “Form B”; in data set [1] (IPA, 45° C., start Form A) it was “Form B”. Also, the “XRPD Results/observations” value in data set [1] (IPA, RT, with solvent replacement, start Form A) is recorded as “Form B”; in data set [1] (IPrOAc, 35° C., start Form A) it was “Form B”; in data set [1] (IPrOAc, RT, start Form A), “Form B”; in data set [1] (MIBK/heptane 40/60, RT, start Form A), “Form B”; in data set [1] (MIBK, 2-8° C., start Form A) it was “Form B”; in data set [1] (MIBK, 35° C., start Form A), “Form B”. Also, the “XRPD Results/observations” value in data set [1] (MIBK, RT, start Form A) is “Form B”; in data set [1] (MTBE, RT, start Form A), “Form B”; in data set [1] (MeOH, 2-8° C., with solvent replacement, start Form A), “Form B”; in data set [1] (MeOH, 45° C., start Form A), “Orange gel”; in data set [1] (MeOH, Freezer, start Form A) it was “Form B + small”; in data set [1] (MeOH, RT, with solvent replacement, start Form A), “Form B”. Moreover, the “XRPD Results/observations” value is recorded as “Form B” in data set [1] (THF/cyclohexane 30/70, 2-8° C., start Form A); “Form B” in data set [1] (THF/cyclohexane 30/70, RT, start Form A); “Orange gel after” in data set [1] (Water, 70° C., start Form A); “Form A” in data set [1] (Water, RT, start Form A). Moreover, the solubility in data set [3] (ACN/water 50/50 slurry supernatant, aqueous with cosolvent or surfactant or cyclodextrin, ACN/water 50/50, Aw 0.90, RT, solid Form B) amounted to 2 mg/mL (≈ 3.26 mM); in data set [3] (CPME slurry supernatant, 2 °C, organic solvent or mixture, CPME, 2-8° C., solid Form B) it was 25 mg/mL (≈ 40.8 mM); in data set [3] (CPME slurry supernatant, organic solvent or mixture, CPME, RT, solid Form B) it was 47 mg/mL (≈ 76.7 mM); in data set [3] (EtOAc/heptane 40/60 slurry supernatant, 2 °C, organic solvent or mixture, EtOAc/heptane 40/60, 2-8° C., solid Form B), 6 mg/mL (≈ 9.79 mM); in data set [3] (EtOAc/heptane 40/60 slurry supernatant, 35 °C, organic solvent or mixture, EtOAc/heptane 40/60, solid Form B), 34 mg/mL (≈ 55.5 mM); in data set [3] (EtOAc/heptane 40/60 slurry supernatant, organic solvent or mixture, EtOAc/heptane 40/60, RT, solid Form B) it was 27 mg/mL (≈ 44.1 mM). In addition, the solubility in data set [3] (EtOH slurry supernatant, 2 °C, organic solvent or mixture, EtOH, 2-8° C., with solvent replacement, solid Form B) came to 3 mg/mL (≈ 4.9 mM); in data set [3] (EtOH slurry supernatant, organic solvent or mixture, EtOH, RT, with solvent replacement (a), starting material mixture of Form A/Form B, solid Form B) it was 7 mg/mL (≈ 11.4 mM); in data set [3] (EtOH slurry supernatant, organic solvent or mixture, EtOH, RT, with solvent replacement, solid Form B), 7 mg/mL (≈ 11.4 mM); in data set [3] (IPA slurry supernatant, 45 °C, organic solvent or mixture, IPA, solid Form B), 44 mg/mL (≈ 71.8 mM); in data set [3] (IPA slurry supernatant, organic solvent or mixture, IPA, RT, with solvent replacement, solid Form B), 4 mg/mL (≈ 6.53 mM); in data set [3] (IPrOAc slurry supernatant, 35 °C, organic solvent or mixture, IPrOAc, solid Form B), 232 mg/mL (≈ 379 mM). The solubility in data set [3] (IPrOAc slurry supernatant, organic solvent or mixture, IPrOAc, RT, solid Form B) amounted to 93 mg/mL (≈ 152 mM); in data set [3] (MIBK slurry supernatant, 2 °C, organic solvent or mixture, MIBK, 2-8° C., solid Form B) it was 128 mg/mL (≈ 209 mM); in data set [3] (MIBK slurry supernatant, 35 °C, organic solvent or mixture, MIBK, solid Form B), 277 mg/mL (≈ 452 mM); in data set [3] (MIBK slurry supernatant, organic solvent or mixture, MIBK, RT, solid Form B), 137 mg/mL (≈ 224 mM); in data set [3] (MIBK/heptane 40/60 slurry supernatant, organic solvent or mixture, MIBK/heptane 40/60, RT, solid Form B), 15 mg/mL (≈ 24.5 mM); in data set [3] (MTBE slurry supernatant, organic solvent or mixture, MTBE, RT, solid Form B), 34 mg/mL (≈ 55.5 mM). Further, the solubility in data set [3] (MeOH slurry supernatant, 2 °C, organic solvent or mixture, MeOH, 2-8° C., with solvent replacement, solid Form B) was 6 mg/mL (≈ 9.79 mM); in data set [3] (MeOH slurry supernatant, organic solvent or mixture, MeOH, Freezer, solid Form B + small additional peaks) it was 5 mg/mL; in data set [3] (MeOH slurry supernatant, organic solvent or mixture, MeOH, RT, with solvent replacement, solid Form B) it was 13 mg/mL (≈ 21.2 mM); in data set [3] (THF/cyclohexane 30/70 slurry supernatant, 2 °C, organic solvent or mixture, THF/cyclohexane 30/70, 2-8° C., solid Form B), 55 mg/mL (≈ 89.8 mM); in data set [3] (THF/cyclohexane 30/70 slurry supernatant, organic solvent or mixture, THF/cyclohexane 30/70, RT, solid Form B), 370 mg/mL (≈ 604 mM).
